Experimental data taken from patent publication US9447408B2, “Method of efficiently establishing induced pluripotent stem cells” (Kyoto University, priority 2010, dated 2016).

Assays:
[1] = system: Human dermal fibroblasts (Tig109 line); test: Human iPS cell colony formation, 4 genes introduced, various p38 inhibitors; type: cell-based; details: for number of iPS cell colonies on day 40 after the infection: no colonies in either control group
Protocol: Human dermal fibroblasts (Tig109 line) were treated using a lentivirus (pLenti6/UbC-Slc7a1) according to the method described by Takahashi, K. et al. in Cell, 131: 861-872 (2007), to express the mouse ecotropic virus receptor Slc7a1 gene. These cells (2×10^5 cells/10 cm dish) were transfected with the four genes using a retrovirus according to the method described by Takahashi, K. et al. in Cell, 131: 861-872 (2007); each compound was added per the schedule shown below. • 1. Oct3/4, Sox2, Klf4, c-Myc, each derived from human, saline • 2. Oct3/4, Sox2, Klf4, c-Myc, each derived from human, DMSO (Day 5-35) • 3. Oct3/4, Sox2, Klf4, c-Myc, each derived from human, SB202190 10 μM (Day 5-20) • 4. Oct3/4, Sox2, Klf4, c-Myc, each derived from human, SB239063 10 μM (Day 5-20) • 5. Oct3/4, Sox2, Klf4, c-Myc, each derived from human, SB202190 10 μM (Day 21-35) • 6. Oct3/4, Sox2, Klf4, c-Myc, each derived from human, SB239063 10 μM (Day 21-35) • 7. Oct3/4, Sox2, Klf4, c-Myc, each derived from human, SB202190 10 μM (Day 5-35) • 8. Oct3/4, Sox2, Klf4, c-Myc, each derived from human, SB239063 10 μM (Day 5-35) On days 24, 32, and 40 after the infection, iPS cell colonies were counted. When the four factors (Oct3/4, Sox2, Klf4, C-Myc) were combined with SB239063 added on days 5 to 20 after the infection, the number of human iPS cell colonies increased on day 24 after the infection.

[2] = system: Mouse embryonic fibroblasts (MEFs); test: iPS cell establishment from Nanog-GFP reporter MEFs, 4 genes (Oct3/4, Sox2, Klf4, c-Myc) introduced, with p38 inhibitors; type: cell-based; details: for number of Nanog-GFP-positive colonies compared with physiological saline or DMSO: 10 μM inhibitor added on days 1 to 4 after the infection
Protocol: Mouse embryonic fibroblasts (MEFs) from a Nanog reporter mouse carrying Nanog-GFP—IRES-Puro^r [Okita K. et al, Nature 448, 313-317 (2007)] were transfected with four genes using a retrovirus to induce iPS cells.
Each retrovirus for reprogramming was prepared by transferring each of retroviral expression vectors (pMXs-Oct3/4, pMXs-Sox2, pMXs-Klf4, pMXs-cMyc:Cell, 126, 663-676 (2006)) to Plat-E cells (Morita, S. et al., Gene Ther. 7, 1063-1066) that had been seeded to a 6-well culture plate (Falcon) at 0.6×10^6 cells per well on the day before. The cells were cultured at 37° C. in the presence of 5% CO2 using DMEM/10% FCS [a culture broth prepared by adding 10% fetal calf serum to DMEM (Nacalai Tesque)]. To facilitate vector transfer, 4.5 μL of FuGene6 transfection reagent (Roche) was placed in 100 μL of Opti-MEM I Reduced-Serum Medium (Invitrogen), and the medium was allowed to stand at room temperature for 5 minutes. Subsequently, 1.5 μg of each expression vector was added, and the medium was allowed to further stand at room temperature for 15 minutes, after which they were added to the Plat-E culture broth. On day 2, the Plat-E supernatant was replaced with a fresh supply of the medium. On day 3, the culture supernatant was recovered and filtered through a 0.45 μm sterile filter (Whatman), and polybrene (Nacalai) was added at 4 μg/mL to yield a viral liquid.
Mouse embryonic fibroblasts (MEFs) were isolated from a fetal Nanog reporter mouse (13.5 days after fertilization). […] Not expressing the puromycin resistance gene as well, MEFs are susceptible to the antibiotic puromycin. As such, MEFs were seeded to a 6-well culture plate (Falcon), previously coated with 0.1% gelatin (Sigma), at 1.0×10^5 cells per well. DMEM/10% FCS served as the culture broth at 37° C. in the presence of 5% CO2. The following day, each retrovirus liquid was added, and this was followed by overnight infection to introduce the genes.
On day 1 after the viral infection, the medium for the MEFs was removed, and the cells were washed by the addition of 1 mL of PBS. After removing the PBS, 0.25% Trypsin/1 mM EDTA (Invitrogen) was added, and a reaction was carried out at 37° C. for about 5 minutes. After the cells floated up, the cells were suspended by the addition of an ES cell culture medium and 2500 cells were seeded to a 100 mm dish having mitomycin C-treated STO feeder cells seeded thereto previously. Cultivation was continued while replacing the ES cell culture medium with a fresh supply of the same medium every two days until a visible colony emerged.
To determine the effects of p38 inhibitors on the establishment of iPS cells by the introduction of the four mouse genes, cultivation was continued with the addition of 10 μM of the p38 inhibitor 5B202190, SB239063, or SB203580 (Calbiochem Company) to the medium per the schedule shown below. All these inhibitors were used in solution in DMSO. • 1. Oct3/4, Sox2, Klf4, c-Myc, each derived from mouse, saline • 2. Oct3/4, Sox2, Klf4, c-Myc, each derived from mouse, DMSO • 3. Oct3/4, Sox2, Klf4, c-Myc, each derived from mouse, SB202190 10 μM Day 1-4) • 4. Oct3/4, Sox2, Klf4, c-Myc, each derived from mouse, SB202190 10 μM (Day 1-8) • 5. Oct3/4, Sox2, Klf4, c-Myc, each derived from mouse, SB202190 10 μM (Day 9-16) • 6. Oct3/4, Sox2, Klf4, c-Myc, each derived from mouse, SB202190 10 μM (Day 1-16) • 7. Oct3/4, Sox2, Klf4, c-Myc, each derived from mouse, SB239063 10 μM (Day 1-4) • 8. Oct3/4, Sox2, Klf4, c-Myc, each derived from mouse, SB239063 10 μM (Day 1-8) • 9. Oct3/4, Sox2, Klf4, c-Myc, each derived from mouse, SB239063 10 μM (Day 9-16) • 10. Oct3/4, Sox2, Klf4, c-Myc, each derived from mouse, SB239063 10 μM (Day 1-16) • 11. Oct3/4, Sox2, Klf4, c-Myc, each derived from mouse, SB203580 10 μM (Day 1-4) • 12. Oct3/4, Sox2, Klf4, c-Myc, each derived from mouse, SB203580 10 μM (Day 1-8) • 13. Oct3/4, Sox2, Klf4, c-Myc, each derived from mouse, SB203580 10 μM (Day 9-16) • 14. […]

## Oc1ccc(-c2nc(-c3ccc(F)cc3)c(-c3ccncc3)[nH]2)cc1 [SB202190, 4-(4-fluorophenyl)-2-(4-hydroxyphenyl)-5-(4-pyridyl)imidazole]
[1]; 10 μM inhibitor
  number of iPS cell colonies on day 32 after the infection: capable of increasing the number of iPS cell colonies
  number of iPS cell colonies on day 40 after the infection: increased remarkably
[1]; 10 μM, Day 21-35
  effect on iPS cell colony number on day 32, inhibitor added day 21 to day 35: remarkable effects
[2]
  number of Nanog-GFP-positive colonies compared with physiological saline or DMSO: increased

## COc1nccc(-c2c(-c3ccc(F)cc3)ncn2[C@H]2CC[C@H](O)CC2)n1 [SB239063, trans-1-(4-Hydroxycyclohexyl)-4-(4-fluorophenyl)-5-(2-methoxypyrimidin-4-yl)imidazole]
[1]; 10 μM added on days 5 to 20
  number of human iPS cell colonies on day 24 after the infection: increased
[1]; 10 μM inhibitor
  number of iPS cell colonies on day 40 after the infection: two
[2]
  number of Nanog-GFP-positive colonies compared with physiological saline or DMSO: increased
[2]; 10 μM inhibitor on days 1 to 4, counted day 28
  effect on colony count when measured on day 28 after the infection: remarkable
[2]; 10 μM inhibitor on days 1 to 4 after the infection, FIG. 1
  colony count compared with cells treated with physiological saline or DMSO: tended to increase
